pKi: −log10 of the molar value. ≈ marks a conversion by molar mass, not a printed value.
Legend:
Vero = assay: cells; conditions: Chlorocebus sabaeus
Adenosylhomocysteinase [1] = target: T1, Adenosylhomocysteinase (Homo sapiens, UniProt P23526); assay: Compound was tested for inhibition of S-adenosyl homocysteine (SAH) hydrolase.
Target sequence in this assay (P23526 whole entry): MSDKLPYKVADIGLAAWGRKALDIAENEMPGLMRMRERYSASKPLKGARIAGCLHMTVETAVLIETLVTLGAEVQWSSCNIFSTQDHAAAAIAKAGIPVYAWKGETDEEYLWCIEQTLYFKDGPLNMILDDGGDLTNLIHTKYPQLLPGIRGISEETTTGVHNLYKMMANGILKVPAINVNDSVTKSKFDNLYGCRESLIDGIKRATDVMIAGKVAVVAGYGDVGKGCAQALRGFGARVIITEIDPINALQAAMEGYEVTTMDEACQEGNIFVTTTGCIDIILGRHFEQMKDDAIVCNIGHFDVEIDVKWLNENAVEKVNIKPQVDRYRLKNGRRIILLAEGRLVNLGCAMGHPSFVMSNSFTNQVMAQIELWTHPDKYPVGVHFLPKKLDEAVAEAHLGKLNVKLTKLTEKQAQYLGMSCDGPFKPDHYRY

L929 = assay: cells; conditions: Mus musculus
Adenosylhomocysteinase [2] = target: T1, Adenosylhomocysteinase; assay: Percentage inhibition of S-adenosyl homocysteine (SAH) hydrolase by the compound at a concentration of 10 uM.
Target sequence in this assay (P23526 2-432 limits assumed): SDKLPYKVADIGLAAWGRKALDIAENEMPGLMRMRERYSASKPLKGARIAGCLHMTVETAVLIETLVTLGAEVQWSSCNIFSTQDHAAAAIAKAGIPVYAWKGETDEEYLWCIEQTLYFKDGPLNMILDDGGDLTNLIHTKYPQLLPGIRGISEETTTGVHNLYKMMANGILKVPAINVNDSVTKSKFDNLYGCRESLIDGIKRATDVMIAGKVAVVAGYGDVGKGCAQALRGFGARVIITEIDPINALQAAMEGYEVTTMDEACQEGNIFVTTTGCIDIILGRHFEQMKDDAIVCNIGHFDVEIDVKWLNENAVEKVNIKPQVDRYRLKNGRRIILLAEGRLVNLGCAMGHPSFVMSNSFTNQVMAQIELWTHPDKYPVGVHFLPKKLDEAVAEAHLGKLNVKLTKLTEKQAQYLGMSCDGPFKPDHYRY

Adenosylhomocysteinase [3] = target: T1, Adenosylhomocysteinase; assay: Compound was tested for competitive inhibition against S-adenosyl homocysteine (SAH) hydrolase.
Target sequence in this assay (P23526 whole entry): as the sequence (P23526 whole entry) above

Nc1ncnc2c1ncn2C(C=O)OC(C=O)CO (stereo unspecified)
IC50 (Vero): 0.41 µg/mL (≈ 1.55 µM)
pKi (Adenosylhomocysteinase [1]): 8.48
IC50 (L929): 3.1 µg/mL (≈ 11.7 µM)

C=C(C=O)OC(C=O)n1cnc2c(N)ncnc21 (stereo unspecified)
IC50 (Vero): 11.5 µg/mL (≈ 46.5 µM)
pKi (Adenosylhomocysteinase [1]): 9.30
IC50 (L929): 8.9 µg/mL (≈ 36 µM)

Nc1ncnc2c1ncn2[C@@H](C=O)OC(CO)CO
inhibition (Adenosylhomocysteinase [2]): 4%

Nc1ncnc2c1ncn2[C@@H](CO)O[C@@H](C=O)CO
pKi (Adenosylhomocysteinase [3]): 5.72
IC50 (Vero): 0.41 µg/mL (≈ 1.53 µM)
inhibition (Adenosylhomocysteinase [2]): 89%
IC50 (L929): 1.9 µg/mL (≈ 7.11 µM)

— ChEMBL document CHEMBL1150546, “Adenosine dialdehyde analogs I: Regioselective synthesis of adenosine monoaldehydes” (Bioorg Med Chem Lett, 1996)
